How the values were obtained:
HCV NS5B = molecular target: T1, HCV NS5B (Hepatitis C virus genotype 1b, UniProt Q9WMX2); assay: HCV NS5B RdRp enzyme assay (standard or modified); type: biochemical; conditions: HCV NS5B RdRp genotype 1b; standard or modified enzyme assay not specified; read-out: IC50
T1 construct: The protein was expressed with an 18 amino acid C-terminal truncation to enhance the solubility; made in house; host or cells: E. coli BL21(DE3)
Method: HCV NS5B RdRp cloning, expression, and purification. The cDNA encoding the NS5B protein of HCV, genotype 1b, was cloned into the pET21a expression vector. The protein was expressed with an 18 amino acid C-terminal truncation to enhance the solubility. The E. coli competent cell line BL21(DE3) was used for expression of the protein. Cultures were grown at 37° C. for ˜4 hours until the cultures reached an optical density of 2.0 at 600 nm. The cultures were cooled to 20° C. and induced with 1 mM IPTG. Fresh ampicillin was added to a final concentration of 50 μg/ml and the cells were grown overnight at 20° C.
Cell pellets (3 L) were lysed for purification to yield 15-24 mgs of purified NS5B. The lysis buffer consisted of 20 mM Tris-HCl, pH 7.4, 500 mM NaCl, 0.5% triton X-100, 1 mM DTT, 1mM EDTA, 20% glycerol, 0.5 mg/ml lysozyme, 10 mM MgCl2, 15 ug/ml deoxyribonuclease I, and Complete TM protease inhibitor tablets (Roche). After addition of the lysis buffer, frozen cell pellets were resuspended using a tissue homogenizer. To reduce the viscosity of the sample, aliquots of the lysate were sonicated on ice using a microtip attached to a Branson sonicator. The sonicated lysate was centrifuged at 100,000×g for 1 hr at 4° C. and filtered through a 0.2 μm filter unit (Corning).
The protein was purified using two sequential chromatography steps: Heparin sepharose CL-6B and polyU sepharose 4B (Pharmacia). The chromatography buffers were identical to the lysis buffer but contained no lysozyme, deoxyribonuclease I, MgCl2 or protease inhibitor and the NaCl concentration of the buffer was adjusted according to the requirements for charging the protein onto the column. Each column was eluted with a NaCl gradient which varied in length from 5-50 column volumes depending on the column type. After the final chromatography step, the resulting purity of the enzyme is >90% based on SDS-PAGE analysis. The enzyme was aliquoted and stored at −80° C.
Standard HCV NS5B RdRp enzyme assay. HCV RdRp genotype 1b assays were run in a final volume of 60 μl in 96 well plates (Corning 3600). The assay buffer is composed of 20 mM Hepes, pH 7.5, 2.5 mM KCl, 2.5 mM MgCl2, 1 mM DTT, 1.6 U RNAse inhibitor (Promega N2515), 0.01 mg/ml BSA (Sigma B6917), and 2% glycerol. All compounds were serially diluted (3-fold) in DMSO and diluted further in water such that the final concentration of DMSO in the assay was 2%. HCV RdRp genotype 1b enzyme was used at a final concentration of 28 nM. A polyA template was used at 6 nM, and a biotinylated oligo-dT12 primer was used at 180 nM final concentration. Template was obtained commercially (Amersham 27-4110). Biotinylated primer was prepared by Sigma Genosys. 3H-UTP was used at 0.6 μCi (0.29 μM total UTP). Reactions were initiated by the addition of enzyme, incubated at 30° C. for 60 min, and stopped by adding 25 μl of 50 mM EDTA containing SPA beads (4 μg/pl, Amersham RPNQ 0007). Plates were read on a Packard Top Count NXT after >1 hr incubation at room temperature.
Modified HCV NS5B RdRp enzyme assay. A modified enzyme assay was performed essentially as described for the standard enzyme assay except for the following: The biotinylated oligo dT12 primer was precaptured on streptavidin-coated SPA beads by mixing primer and beads in assay buffer and incubating at room temperature for one hour. Unbound primer was removed after centrifugation. The primer-bound beads were resuspended in 20 mM Hepes buffer, pH 7.5 and used in the assay at final concentrations of 20 nM primer and 0.67 μg/μl beads. Order of addition in the assay: enzyme (1.75 nM) was added to diluted compound followed by the addition of a mixture of template (0.36 nM), 3H-UTP (0.6 μCi, 0.29 μM), and primer-bound beads, to initiate the reaction; concentrations given are final. Reactions were allowed to proceed for 4 hours at 30° C.
IC50 values for compounds were determined using seven different [I]. […]

HCV replicon = HCV replicon FRET / luciferase assay; type: cell-based; conditions: Hepatitis C virus; HCV replicon cells; 50% reduction in FRET or luciferase activity; read-out: EC50
Method: FRET Assay Preparation. The HCV FRET screening assay was performed in 96-well cell culture plates. The FRET peptide (Anaspec, Inc.) (Taliani et al., Anal. Biochem. 1996, 240, 60-67) contains a fluorescence donor, EDANS, near one end of the peptide and an acceptor, DABCYL, near the other end. The fluorescence of the peptide is quenched by […] resonance energy transfer (RET) between the donor and the acceptor, but as the NS3 protease cleaves the peptide the products are released from RET quenching and the fluorescence of the donor becomes apparent. The assay reagent was made as follows: 5× cell Luciferase cell culture lysis reagent from Promega (#E153A) diluted to 1× with dH2O, NaCl added to 150 mM final, the FRET peptide diluted to 20 μM final from a 2 mM stock.
To prepare plates, HCV replicon cells, with or without a Renilla luciferase reporter gene, were trypsinized and plated in a 96-well plate with titrated test compounds added in columns 3 through 12; columns 1 and 2 contained a control compound (HCV control inhibitor), and the bottom row contained cells with DMSO only. The plates were then placed in a CO2 incubator at 37° C.
Assays. Subsequent to addition of the test compounds described above (FRET Assay Preparation), at various times the plate was removed and Alamar blue solution (Trek Diagnostics, #00-100) was added to measure cellular toxicity. After reading in a Cytoflour 4000 instrument (PE Biosystems), plates were rinsed with PBS and then used for FRET assay by the addition of 30 ul of the FRET peptide assay reagent described above (FRET Assay Preparation) per well. The plate was then placed into the Cytoflour 4000 instrument which had been set to 340 excite/490 emission, automatic mode for up to 20 cycles and the plate read in a kinetic mode. Typically, the signal to noise using an endpoint analysis after the reads was at least three-fold. Alternatively, after Alamar blue reading, plates were rinsed with PBS, then used for luciferase assay using the Promega Dual-Glo Luciferase Assay System or the Promega EnduRen Live Cell Substrate assay.
Compound analysis was performed by quantification of the relative HCV replicon inhibition and the relative cytotoxicity values. To calculate cytoxicity values, the average Alamar Blue fluorescence signals from the control wells were set as 100% non-toxic. The individual signals in each of the compound test wells were then divided by the average control signal and multiplied by 100% to determine […]. To calculate the HCV replicon inhibition values, an average background value was obtained from the two wells containing the highest amount of HCV control inhibitor at the end of the assay period. These numbers were similar to those obtained from naive Huh-7 cells. The background numbers were then subtracted from the average signal obtained from the control wells and this number was used as 100% activity. The individual signals in each of the compound test wells were then divided by the averaged control values after background subtraction and multiplied by 100% to determine percent activity. EC50 values were calculated as the concentration which caused a 50% reduction in FRET or luciferase activity. The two numbers generated for the compound plate, percent cytoxicity and percent activity, were used to determine compounds of interest for further analysis.

T1 sequence (Q9WMX2 2420-2992): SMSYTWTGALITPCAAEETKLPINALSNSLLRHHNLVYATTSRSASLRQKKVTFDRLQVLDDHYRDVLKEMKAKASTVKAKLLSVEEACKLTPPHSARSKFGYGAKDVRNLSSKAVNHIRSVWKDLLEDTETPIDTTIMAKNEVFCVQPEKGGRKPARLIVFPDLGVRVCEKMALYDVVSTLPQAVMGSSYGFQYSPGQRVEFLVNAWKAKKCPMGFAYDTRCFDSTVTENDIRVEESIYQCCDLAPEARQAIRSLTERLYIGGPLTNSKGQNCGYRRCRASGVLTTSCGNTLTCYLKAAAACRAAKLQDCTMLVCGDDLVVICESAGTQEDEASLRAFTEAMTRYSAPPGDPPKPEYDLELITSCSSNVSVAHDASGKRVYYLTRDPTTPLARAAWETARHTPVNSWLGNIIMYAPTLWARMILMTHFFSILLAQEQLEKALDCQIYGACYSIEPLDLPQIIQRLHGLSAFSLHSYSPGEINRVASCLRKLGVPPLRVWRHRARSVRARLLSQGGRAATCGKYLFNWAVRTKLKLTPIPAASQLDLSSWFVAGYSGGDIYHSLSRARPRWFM

Structure (SMILES) | IC50 (HCV NS5B) [nM] | EC50 (HCV replicon) [nM]
COc1ccc2c(c1)C1CC1(C(=O)N(C)CC(=O)N1CCOCC1)Cn1c-2c(C2CCCCC2)c2ccc(C(=O)NS(=O)(=O)N(C)C)cc21 (stereo not drawn) | 3 to 1000 | 3 to 1000
COc1ccc2c(c1)C1CC1(C(=O)N1CCN(c3cnccn3)CC1)Cn1c-2c(C2CCCCC2)c2ccc(C(=O)NS(=O)(=O)C3CC3)cc21 (stereo not drawn) | 3 to 1000 | 3 to 1000
COc1ccc2c(c1)C1CC1(C(=O)O[C@@H]1C[C@H](C)CC[C@H]1C(C)C)Cn1c-2c(C2CCCCC2)c2ccc(C(=O)NS(=O)(=O)N(C)C)cc21 (stereo partly drawn) | 3 to 1000 | > 1000
COc1ccc2c(c1)C1CC1(C(=O)N(C)CC1(C3CCCCC3)CCCCC1)Cn1c-2c(C2CCCCC2)c2ccc(C(=O)NS(=O)(=O)N(C)C)cc21 (stereo not drawn) | 3 to 1000 | 3 to 1000
COc1ccc2c(c1)C1CC1(C(=O)N1CCNC(c3ccccc3)C1)Cn1c-2c(C2CCCCC2)c2ccc(C(=O)NS(=O)(=O)N(C)C)cc21 (stereo not drawn) | 3 to 1000 | 3 to 1000
COc1ccc2c(c1)C1CC1(C(=O)N1CCNC(c3cccc(Cl)c3)C1)Cn1c-2c(C2CCCCC2)c2ccc(C(=O)NS(=O)(=O)N(C)C)cc21 (stereo not drawn) | 3 to 1000 | 3 to 1000
COc1ccc2c(c1)C1CC1(C(=O)N1CCNC(=O)CC1)Cn1c-2c(C2CCCCC2)c2ccc(C(=O)NS(=O)(=O)N(C)C)cc21 (stereo not drawn) | 3 to 1000 | 3 to 1000
COc1ccc2c(c1)C1CC1(C(=O)N1CCCN(Cc3ccccc3)CC1)Cn1c-2c(C2CCCCC2)c2ccc(C(=O)NS(=O)(=O)N(C)C)cc21 (stereo not drawn) | 3 to 1000 | 3 to 1000
COc1ccc2c(c1)C1CC1(C(=O)N1CCCN(C(C)=O)CC1)Cn1c-2c(C2CCCCC2)c2ccc(C(=O)NS(=O)(=O)N(C)C)cc21 (stereo not drawn) | 3 to 1000 | 3 to 1000
COc1ccc2c(c1)C1CC1(C(=O)N1CCNC(c3ccc(F)cc3)C1)Cn1c-2c(C2CCCCC2)c2ccc(C(=O)NS(=O)(=O)N(C)C)cc21 (stereo not drawn) | 3 to 1000 | 3 to 1000
COc1ccc(C2CN(C(=O)C34CC3c3cc(OC)ccc3-c3c(C5CCCCC5)c5ccc(C(=O)NS(=O)(=O)N(C)C)cc5n3C4)CCN2)cc1 (stereo not drawn) | 3 to 1000 | 3 to 1000
COc1ccc2c(c1)C1CC1(C(=O)N1CCNC(c3ccc(Cl)cc3)C1)Cn1c-2c(C2CCCCC2)c2ccc(C(=O)NS(=O)(=O)N(C)C)cc21 (stereo not drawn) | 3 to 1000 | 3 to 1000
COc1ccc2c(c1)C1CC1(C(=O)N1CCCN(Cc3cccnc3)CC1)Cn1c-2c(C2CCCCC2)c2ccc(C(=O)NS(=O)(=O)N(C)C)cc21 (stereo not drawn) | 3 to 1000 | 3 to 1000
COc1ccc2c(c1)C1CC1(C(=O)N1CCCN(Cc3cccnc3)CC1)Cn1c-2c(C2CCCCC2)c2ccc(C(=O)NS(=O)(=O)C3CC3)cc21 (stereo not drawn) | 3 to 1000 | 3 to 1000
COc1ccc2c(c1)C1CC1(C(=O)N1CCC[C@H]1CN1CCCC1)Cn1c-2c(C2CCCCC2)c2ccc(C(=O)NS(=O)(=O)C3CC3)cc21 (stereo partly drawn) | 3 to 1000 | 3 to 1000
COc1ccc2c(c1)C1CC1(C(=O)N1CCCN(C(=O)OC(C)(C)C)CC1)Cn1c-2c(C2CCCCC2)c2ccc(C(=O)NS(=O)(=O)C(C)C)cc21 (stereo not drawn) | 3 to 1000 | 3 to 1000
COc1ccc2c(c1)C1CC1(C(=O)N1CCCN(C(=O)OC(C)(C)C)CC1)Cn1c-2c(C2CCCCC2)c2ccc(C(=O)NS(C)(=O)=O)cc21 (stereo not drawn) | 3 to 1000 | 3 to 1000
COc1ccc2c(c1)C1CC1(C(=O)N1CCN(C)CC1c1ccccc1)Cn1c-2c(C2CCCCC2)c2ccc(C(=O)NS(C)(=O)=O)cc21 (stereo not drawn) | 3 to 1000 | 3 to 1000
COc1ccc2c(c1)C1CC1(C(=O)N1CCCN(Cc3cccnc3)CC1)Cn1c-2c(C2CCCCC2)c2ccc(C(=O)NS(C)(=O)=O)cc21 (stereo not drawn) | 3 to 1000 | 3 to 1000
COc1ccc2c(c1)C1CC1(C(=O)N1CCCN(Cc3cccnc3)CC1)Cn1c-2c(C2CCCCC2)c2ccc(C(=O)NS(=O)(=O)N3CCC3)cc21 (stereo not drawn) | 3 to 1000 | 3 to 1000
COc1ccc2c(c1)C1CC1(C(=O)N1CCCN(C(=O)OC(C)(C)C)CC1)Cn1c-2c(C2CCCCC2)c2ccc(C(=O)NS(=O)(=O)N3CCC3)cc21 (stereo not drawn) | 3 to 1000 | 3 to 1000
COc1ccc2c(c1)C1CC1(C(=O)N1CCN(C)CC1c1ccccc1)Cn1c-2c(C2CCCCC2)c2ccc(C(=O)NS(=O)(=O)N3CCC3)cc21 (stereo not drawn) | 3 to 1000 | 3 to 1000
C=CCN1CCN(C(=O)C23CC2c2cc(OC)ccc2-c2c(C4CCCCC4)c4ccc(C(=O)NS(=O)(=O)C(C)C)cc4n2C3)CC1 (stereo not drawn) | 3 to 1000 | 3 to 1000
COc1ccc2c(c1)C1CC1(C(=O)N1CCN(C)C[C@@H]1c1ccccc1)Cn1c-2c(C2CCCCC2)c2ccc(C(=O)NS(=O)(=O)C(C)C)cc21 (stereo partly drawn) | 3 to 1000 | 3 to 1000
